# What was measured:
# 5-HT2A receptor = 5-HT2A receptor (Rattus norvegicus (Rat), UniProt P14842); assay: Binding to 5-HT2A receptor ([3H]-Ketanserin, rat cortical membranes); design: species or system Sprague-Dawley (SD) rats; conditions: 0.5 nM [3H]-Ketanserin; read-out: 5-HT2A: IC50 (Concentration required to be 50% suppressed)
# Protocol: Binding to 5-HT2A Receptor
# 6-week-old Sprague-Dawley (SD) rats were anesthetized in an ether container for 5 minutes, brains were separated from rats, and cortical regions were then separated from the brains of the rats. The cortical regions of the rats were put into a Tris-HCl buffer solution (50 mM, pH 7.7) and homogenized, and the homogenate was centrifuged twice at 4° C. at a rotary speed of 50,000 g to obtain a precipitate (membrane protein). The precipitate was put into a buffer solution, and homogenized, which was used later as a protein source. 0.5 nM [3H]-Ketanserin was used as a radioactive isotope, and 10 uM serotonin was used to remove non-specific bindings. 25 ul of the compound, 100 ul of an aqueous radioactive isotope solution, and 100 ul of the protein source were put together, and kept at 25° C. for 1 hour. The resulting mixture was filtered with a membrane filter in a 96-well harvester when the 96-well plate reaction was completed. The competitivity of the compound to [3H]-Ketanserin was determined by taking the membrane filter and measuring the radioactivity in a scintillation counter, and an IC50 value was determined by measuring the increasing concentration of the compound. The specific reaction of the compound accounted for 90% or more. The general experiments were carried out according to the method by Leysen et al. (1982, Eur. J. Pharmacol).
# male ICR mouse [1] = assay: Acetic acid-induced writhing test in mouse; format: in vivo; conditions: Mus musculus, unit not given (method doses in mg/kg), read-out: AA Writhing: ED50
# In short: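 Male ICR mice (30 to 35 g) dosed orally at 10 mg/kg, then given 0.8% acetic acid i.p. 1 h later. Writhes counted for 10 min and expressed as % suppression against vehicle. ED50 derived by linear regression over at least three doses.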
# 5-HT1A receptor = 5-HT1A receptor (Rattus norvegicus (Rat), UniProt P19327); assay: Binding to 5-HT1A receptor ([3H]-8-OH-DPAT, rat cortical membranes); design: species or system Sprague-Dawley (SD) rats; conditions: 2 nM [3H]-8-OH-DPAT; read-out: 5-HT1A: IC50 (Concentration required to be 50% suppressed)
# 5-HT1A receptor, sequence (P19327 whole entry): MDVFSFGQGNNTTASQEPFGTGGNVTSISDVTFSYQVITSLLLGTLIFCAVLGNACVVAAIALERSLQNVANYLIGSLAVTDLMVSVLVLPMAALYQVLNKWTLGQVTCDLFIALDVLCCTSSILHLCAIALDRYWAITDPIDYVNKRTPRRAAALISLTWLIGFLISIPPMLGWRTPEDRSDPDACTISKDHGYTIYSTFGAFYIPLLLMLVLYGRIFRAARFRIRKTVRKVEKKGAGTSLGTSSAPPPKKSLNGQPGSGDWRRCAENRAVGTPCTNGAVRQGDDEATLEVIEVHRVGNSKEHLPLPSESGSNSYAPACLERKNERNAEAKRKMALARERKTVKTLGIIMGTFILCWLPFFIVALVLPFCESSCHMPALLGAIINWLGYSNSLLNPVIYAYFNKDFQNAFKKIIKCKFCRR
# Protocol: Binding to 5-HT1A Receptor
# 6-week-old Sprague-Dawley (SD) rats were anesthetized in an ether container for 5 minutes, brains were separated from rats, and cortical regions were then separated from the brains of the rats. The cortical regions of the rats were put into a Tris-HCl buffer solution (50 mM, pH 7.4) and homogenized, and the homogenate was centrifuged twice at 4? at a rotary speed of 50,000 g to obtain a precipitate (membrane protein). The precipitate was put into a buffer solution, and homogenized, which was used later as a protein source. 2 nM [3H]-8-OH-DPAT was used as a radioactive isotope, and 10 uM serotonin was used to remove non-specific bindings. 25 ul of the compound, 100 ul of an aqueous radioactive isotope solution, and 100 ul of the protein source were put together, and kept at 25° C. for 1 hour. The resulting mixture was filtered with a membrane filter in a 96-well harvester when the 96-well plate reaction was completed. The competitivity of the compound to [3H]-8-OH-DPAT was determined by taking the membrane filter and measuring the radioactivity of the membrane filter in a scintillation counter, and an IC50 value was determined by measuring the increasing concentration of the compound. The specific reaction of the compound accounted for 90% or more. The general experiments were carried out according to the method by Middlemiss et al. (1984, Eur. J. Pharmacol.).
# male ICR mouse [2] = assay: Formalin test - late phase in mouse; format: in vivo; conditions: ip, unit inferred
# 5-HT2A receptor, sequence (P14842 whole entry): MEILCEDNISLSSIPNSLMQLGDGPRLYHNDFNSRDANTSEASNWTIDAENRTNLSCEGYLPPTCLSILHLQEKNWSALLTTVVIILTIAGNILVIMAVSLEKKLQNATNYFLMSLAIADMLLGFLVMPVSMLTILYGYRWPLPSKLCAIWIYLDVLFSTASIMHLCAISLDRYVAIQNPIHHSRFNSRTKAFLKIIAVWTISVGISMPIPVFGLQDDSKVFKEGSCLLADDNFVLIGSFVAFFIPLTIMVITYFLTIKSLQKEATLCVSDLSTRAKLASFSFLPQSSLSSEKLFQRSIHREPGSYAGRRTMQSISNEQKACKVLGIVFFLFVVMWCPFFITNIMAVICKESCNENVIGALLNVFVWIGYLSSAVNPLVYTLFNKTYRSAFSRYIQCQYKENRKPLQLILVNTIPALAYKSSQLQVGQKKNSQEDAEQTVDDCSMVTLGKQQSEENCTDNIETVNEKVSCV
smiles,measurement,setting,value
"NC(=O)OC(CCCN1CCN(c2ccccc2)CC1)c1ccccc1 (centres unmarked) [Example 94, Carbamic acid 1-phenyl-4-(4-phenyl-piperazin-1-yl)-butyl ester]",IC50,5-HT2A receptor,514 nM
same,ED50,male ICR mouse [1]; ip,0.25 mg/kg
same,ED50,male ICR mouse [1]; po,3.61 mg/kg
same,IC50,5-HT1A receptor,89.8 nM
same,ED50,male ICR mouse [2],2.79 mg/kg

# Reference: patent US8815852B2, “Carbamoyloxy arylalkan arylpiperazine analgesics” (SK Biopharmaceuticals Co., Ltd., priority 2007, dated 2014)
